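Five concentrations, 48 hours, 96-well plates. Definition used: TGI = concentration required for complete inhibition of growth.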
Assays:
Assay in all cases: NCI-60 cell line screen, 48 h
[1] = tested on: SN12C renal
[2] = tested on: SW-620 colon
[3] = tested on: NCI-H522 lung
[4] = tested on: SK-MEL-2 melanoma
[5] = tested on: SF-295 CNS
[6] = tested on: HL-60(TB) leukemia
[7] = tested on: NCI-H460 lung
[8] = tested on: KM12 colon
[9] = tested on: SNB-19 CNS
[10] = tested on: M19-MEL melanoma
[11] = tested on: RPMI-8226 leukemia
[12] = tested on: LOX IMVI melanoma
[13] = tested on: NCI-H23 lung
[14] = tested on: A549 NSCLC
[15] = tested on: M14 melanoma
[16] = tested on: MALME-3M melanoma
[17] = tested on: TK-10 renal
[18] = tested on: SNB-78 CNS
[19] = tested on: OVCAR-8 ovarian
[20] = tested on: DMS 273 small cell lung
[21] = tested on: KM20L2 colon
[22] = tested on: MOLT-4 leukemia
[23] = tested on: EKVX NSCLC
[24] = tested on: XF 498 CNS
[25] = tested on: COLO 205 colon
[26] = tested on: UACC-257 melanoma
[27] = tested on: U251 CNS
[28] = tested on: RXF 393 renal
[29] = tested on: SNB-75 CNS
[30] = tested on: SK-OV-3 ovarian
[31] = tested on: UACC-62 melanoma
[32] = tested on: HCT-15 colon
[33] = tested on: HCT-116 colon
[34] = tested on: SF-268 CNS
[35] = tested on: ACHN renal
[36] = tested on: HT29 colon
[37] = tested on: SR leukemia
[38] = tested on: CCRF-CEM leukemia
[39] = tested on: SK-MEL-28 melanoma
[40] = tested on: UO-31 renal
[41] = tested on: DMS 114 small cell lung
[42] = tested on: 786-0 renal
[43] = tested on: LXFL 529 NSCLC
[44] = tested on: NCI-H226 lung
[45] = tested on: K-562 leukemia
[46] = tested on: OVCAR-4 ovarian
[47] = tested on: SK-MEL-5 melanoma
[48] = tested on: HOP-18 NSCLC
[49] = tested on: HOP-62 NSCLC
[50] = tested on: CAKI-1 renal
[51] = tested on: RXF-631 renal
[52] = tested on: HCC-2998 colon
[53] = tested on: SF-539 CNS
[54] = tested on: HOP-92 NSCLC
[55] = tested on: IGROV1 ovarian
[56] = tested on: DLD-1 colon
[57] = tested on: A498 renal
[58] = tested on: OVCAR-3 ovarian
[59] = tested on: MDA-MB-231 breast
[60] = tested on: PC-3 prostate
[61] = tested on: BT-549 breast
[62] = tested on: MDA-N
[63] = tested on: DU-145 prostate
[64] = tested on: HS 578T breast
[65] = tested on: OVCAR-5 ovarian
[66] = tested on: MCF7 breast
[67] = tested on: MDA-MB-435
[68] = tested on: T-47D breast
[69] = tested on: NCI/ADR-RES ovarian

## CC(C)NC1CCCCC2c3ccccc3C12O (stereo unspecified)
[1]
  TGI: > 100 µM
[2]
  TGI: > 100 µM
[3]
  TGI: > 100 µM
[4]
  TGI: > 100 µM
[5]
  TGI: > 100 µM
[6]
  TGI: > 100 µM
[7]
  TGI: > 100 µM
[8]
  TGI: > 100 µM
[9]
  TGI: > 100 µM
[10]
  TGI: > 100 µM
[11]
  TGI: > 100 µM
[12]
  TGI: > 100 µM
[13]
  TGI: > 100 µM
[14]
  TGI: > 100 µM
[15]
  TGI: > 100 µM
[16]
  TGI: > 100 µM
[17]
  TGI: > 100 µM
[18]
  TGI: > 100 µM
[19]
  TGI: > 100 µM
[20]
  TGI: > 100 µM
[21]
  TGI: > 100 µM
[22]
  TGI: > 100 µM
[23]
  TGI: > 100 µM
[24]
  TGI: > 100 µM
[25]
  TGI: > 100 µM
[26]
  TGI: > 100 µM
[27]
  TGI: > 100 µM
[28]
  TGI: > 100 µM
[29]
  TGI: > 100 µM
[30]
  TGI: > 100 µM
[31]
  TGI: > 100 µM
[32]
  TGI: > 100 µM
[33]
  TGI: > 100 µM
[34]
  TGI: > 100 µM
[35]
  TGI: > 100 µM
[36]
  TGI: > 100 µM
[37]
  TGI: > 100 µM
[38]
  TGI: > 100 µM
[39]
  TGI: > 100 µM
[40]
  TGI: > 100 µM
[41]
  TGI: > 100 µM
[42]
  TGI: > 100 µM
[43]
  TGI: > 100 µM
[44]
  TGI: > 100 µM
[45]
  TGI: > 100 µM
[46]
  TGI: > 100 µM
[47]
  TGI: > 100 µM
[48]
  TGI: > 100 µM
[49]
  TGI: > 100 µM

## CCCN(CCC)C1CC(n2cc(C)c(=O)[nH]c2=O)OC1CO (stereo unspecified)
[1]
  TGI: > 100 µM
[3]
  TGI: > 100 µM
[4]
  TGI: > 100 µM
[6]
  TGI: > 100 µM
[50]
  TGI: > 100 µM
[7]
  TGI: > 100 µM
[10]
  TGI: > 100 µM
[11]
  TGI: > 100 µM
[13]
  TGI: > 100 µM
[15]
  TGI: > 100 µM
[16]
  TGI: > 100 µM
[51]
  TGI: > 100 µM
[18]
  TGI: > 100 µM
[20]
  TGI: > 100 µM
[22]
  TGI: > 100 µM
[52]
  TGI: > 100 µM
[53]
  TGI: > 100 µM
[25]
  TGI: > 100 µM
[54]
  TGI: > 100 µM
[55]
  TGI: > 100 µM
[29]
  TGI: > 100 µM
[30]
  TGI: > 100 µM
[31]
  TGI: > 100 µM
[33]
  TGI: > 100 µM
[56]
  TGI: > 100 µM
[34]
  TGI: > 100 µM
[35]
  TGI: > 100 µM
[37]
  TGI: > 100 µM
[38]
  TGI: > 100 µM
[39]
  TGI: > 100 µM
[40]
  TGI: > 100 µM
[41]
  TGI: > 100 µM
[42]
  TGI: > 100 µM
[43]
  TGI: > 100 µM
[44]
  TGI: > 100 µM
[45]
  TGI: > 100 µM
[46]
  TGI: > 100 µM
[49]
  TGI: > 100 µM

## O=C1/C(=C/c2cc(O)c(O)c(O)c2)Oc2cc(O)cc(OC3OC(CO)C(O)C(O)C3O)c21 (stereo unspecified)
[1]
  TGI: 33 µM
[2]
  TGI: 58.3 µM
[4]
  TGI: 47.7 µM
[5]
  TGI: 34.3 µM
[6]
  TGI: 43.1 µM
[7]
  TGI: 34 µM
[8]
  TGI: > 100 µM
[9]
  TGI: > 100 µM
[10]
  TGI: 37.1 µM
[11]
  TGI: 67.9 µM
[13]
  TGI: 80.9 µM
[14]
  TGI: > 100 µM
[57]
  TGI: > 100 µM
[15]
  TGI: 50.4 µM
[17]
  TGI: > 100 µM
[18]
  TGI: 68.5 µM
[58]
  TGI: 31.4 µM
[19]
  TGI: 35.7 µM
[20]
  TGI: 3.67 µM
[21]
  TGI: 74 µM
[22]
  TGI: 43.4 µM
[52]
  TGI: > 100 µM
[53]
  TGI: > 100 µM
[23]
  TGI: > 100 µM
[25]
  TGI: 54.1 µM
[54]
  TGI: 38.7 µM
[55]
  TGI: > 100 µM
[29]
  TGI: > 100 µM
[30]
  TGI: > 100 µM
[31]
  TGI: 38.8 µM
[32]
  TGI: 57.5 µM
[33]
  TGI: 31.1 µM
[56]
  TGI: 42.4 µM
[35]
  TGI: 25.7 µM
[36]
  TGI: 59.5 µM
[38]
  TGI: 44.5 µM
[39]
  TGI: > 100 µM
[40]
  TGI: > 100 µM
[41]
  TGI: > 100 µM
[42]
  TGI: > 100 µM
[43]
  TGI: 28 µM
[45]
  TGI: 34.9 µM
[46]
  TGI: 6.49 µM
[47]
  TGI: 31 µM
[48]
  TGI: > 100 µM

## CC(=O)N1N=C(c2ccccc2)NC(=O)C1c1cc(C)c(O)c(C)c1 (stereo unspecified)
[1]
  TGI: 79.1 µM
[2]
  TGI: > 100 µM
[3]
  TGI: 37 µM
[4]
  TGI: 72.2 µM
[5]
  TGI: 43.8 µM
[6]
  TGI: > 100 µM
[50]
  TGI: > 100 µM
[59]
  TGI: 46.3 µM
[7]
  TGI: > 100 µM
[8]
  TGI: > 100 µM
[9]
  TGI: 50.9 µM
[11]
  TGI: > 100 µM
[12]
  TGI: > 100 µM
[13]
  TGI: 64.1 µM
[60]
  TGI: 79.7 µM
[14]
  TGI: 66.1 µM
[57]
  TGI: 67.2 µM
[61]
  TGI: 54.1 µM
[15]
  TGI: > 100 µM
[16]
  TGI: 38.1 µM
[62]
  TGI: > 100 µM
[17]
  TGI: 38.2 µM
[58]
  TGI: 36.7 µM
[19]
  TGI: 31.4 µM
[63]
  TGI: 57.5 µM
[22]
  TGI: > 100 µM
[52]
  TGI: 45.9 µM
[64]
  TGI: > 100 µM
[65]
  TGI: > 100 µM
[53]
  TGI: 40.3 µM
[23]
  TGI: 93.6 µM
[25]
  TGI: > 100 µM
[54]
  TGI: 38.8 µM
[26]
  TGI: 96.7 µM
[27]
  TGI: 35 µM
[55]
  TGI: 72.7 µM
[28]
  TGI: 31.2 µM
[29]
  TGI: 37.5 µM
[30]
  TGI: 34.3 µM
[31]
  TGI: 40 µM
[32]
  TGI: > 100 µM
[66]
  TGI: 43.6 µM
[33]
  TGI: 54.1 µM
[34]
  TGI: 34.3 µM
[35]
  TGI: 44 µM
[36]
  TGI: > 100 µM
[37]
  TGI: > 100 µM
[38]
  TGI: > 100 µM
[39]
  TGI: > 100 µM
[67]
  TGI: > 100 µM
[40]
  TGI: 48.9 µM
[42]
  TGI: 31.7 µM
[68]
  TGI: 42 µM
[44]
  TGI: 49.7 µM
[45]
  TGI: > 100 µM
[69]
  TGI: 47.7 µM
[46]
  TGI: 43.3 µM
[47]
  TGI: 56.4 µM
[49]
  TGI: 35.3 µM
